Consider 2 compounds from patent US9713614B2, “Combination of HMG-CoA reductase inhibitors with phosphodiesterase 4 inhibitors for the treatment of inflammatory pulmonary diseases” (TAKEDA GMBH, priority 2006, dated 2017).

Structures are written as SMILES.

A word on the ED50: it is the dose that gives a 50% effect, or the effect in half of the subjects.

This test concerns LPS-induced systemic TNFα release. Briefly: Inhibition of LPS-induced systemic TNFα release in rats. The format is in vivo, rat. The note with it: for ED50: Rattus norvegicus, male Sprague Dawley rats, by gavage 1 h before i.v. LPS 0.1 mg/kg, plasma TNFα by ELISA 90 min after LPS, from dose-response curves. On the procedure: Pharmacology: Synergistic Inhibition of LPS-Induced Systemic TNFα Release in Rats by a Combination of ATORVASTATIN Hemi-Calcium Sesqui-Hydrate and 2-{4-[(4aS,8aR)-4-(3,4-dimethoxyphenyl)-1-oxo-4a,5,8,8a-tetrahydro-1H-phthalazin-2-yl]-piperidin-1-yl}-acetamide (COMPOUND A) Animals:
male Sprague Dawley rats 200-280 g
ATORVASTATIN hemi-calcium sesqui-hydrate (Alexis Pharmaceuticals, San Diego, Calif., USA) and COMPOUND A (ALTANA Pharma, Konstanz, Germany).
Drugs were administered by gavage as a methocel/polyethylenglycol 400 suspension 1 h before intravenous administration of LPS (0.1 mg/kg). Euthanasia was induced 90 minutes later by injecting pentobarbital (48 mg/kg) and heparin (1,000 U/kg). Heparinized blood was obtained by heart puncture. Blood was centrifuged (21,000×g, 4° C., 15 min), and plasma samples were kept frozen at −80° C. until determination of TNFα levels by a commercially available ELISA kit (Quantakine®M, Rat TNFα immunoassay, R&D, MN, USA).
All data are given as mean±SEM. Significances were calculated on the primary TNFα concentrations in comparison with the LPS-challenged control group using ANOVA with subsequent Dunnett's Test provided by GraphPadPrism software package. Differences with p<0.05 were considered significant. Dose-response curves were calculated by non-linear regression analysis within fixed limits of 0 to 100% inhibition. 50% inhibitory dose (ED50) values were derived from dose-response curves.
A general note: In an ELISA, binding on a coated surface is turned into a signal by an enzyme label.

Regarding `CC(C)c1c(C(=O)Nc2ccccc2)c(-c2ccccc2)c(-c2ccc(F)cc2)n1CC[C@@H](O)C[C@H](O)CC(=O)O` [ATORVASTATIN hemi-calcium sesqui-hydrate, (3S,5R)-7-[3-(anilinocarbonyl)-5-(4-fluorophenyl)-2-isopropyl-4-phenyl-1H-pyrrol-1-yl]-3,5-dihydroxyheptanoic acid], the ED50 was 23 mg/kg. Also, under “ATORVASTATIN hemi-calcium sesqui-hydrate alone 0.5 mg/kg by gavage, rats, no significant effect”, the “decrease of LPS-induced TNFα versus placebo” value stood at 11%.
For the compound `COc1ccc(C2=NN(C3CCN(CC(N)=O)CC3)C(=O)[C@@H]3CC=CC[C@H]23)cc1OC` [COMPOUND A, 2-{4-[(4aS,8aR)-4-(3,4-dimethoxyphenyl)-1-oxo-4a,5,8,8a-tetrahydro-1H-phthalazin-2-yl]-piperidin-1-yl}-acetamide], the median effective dose (ED50) worked out at 0.14 mg/kg. Besides, the “increase of LPS-induced TNFα versus placebo” value (COMPOUND A alone 0.013 mg/kg by gavage, rats, no significant effect) is recorded as 1%.
